Reference: patent publication US20140066431A1, “Benzoxazepines as Inhibitors of PI3K/mTOR and Methods of Their Use and Manufacture” (Exelixis, Inc., priority 2010, published 2014)

Key:
PI3Kβ = PI3Kβ (Homo sapiens, UniProt P42338); assay: PI3K biochemical assay, PI3Kβ
Experimental: PI3Kα activity is measured as the percent of ATP consumed following the kinase reaction using luciferase-luciferin-coupled chemiluminescence. Reactions were conducted in 384-well white, medium binding microtiter plates (Greiner). Kinase reactions were initiated by combining test compounds, ATP, substrate (PIP2), and kinase in a 20 μL volume in a buffer solution. The standard PI3Kalpha assay buffer is composed 50 mM Tris, pH 7.5, 1 mM EGTA, 10 mM MgCl2, 1 mM DTT and 0.03% CHAPS. The standard assay concentrations for enzyme, ATP, and substrate are 1.5 nM, 1 μM, and 10 μM, respectively. The reaction mixture was incubated at ambient temperature for approximately 2 h. Following the kinase reaction, a 10 μL aliquot of luciferase-luciferin mix (Promega Kinase-Glo) was added and the chemiluminescence signal measured using a Victor2 plate reader (Perkin Elmer). […] Substituting PI3Kα with PI3Kβ, PI3Kγ, or PI3Kδ, the inhibitory activity of the compounds for the other isoforms of I3K were measured.

PI3Kγ = PI3Kγ (Homo sapiens, UniProt P48736); assay: PI3K biochemical assay, PI3Kγ; details: PIP2 as substrate
Experimental: PI3Kα activity is measured as the percent of ATP consumed following the kinase reaction using luciferase-luciferin-coupled chemiluminescence. Reactions were conducted in 384-well white, medium binding microtiter plates (Greiner). Kinase reactions were initiated by combining test compounds, ATP, substrate (PIP2), and kinase in a 20 μL volume in a buffer solution. The standard PI3Kalpha assay buffer is composed 50 mM Tris, pH 7.5, 1 mM EGTA, 10 mM MgCl2, 1 mM DTT and 0.03% CHAPS. The standard assay concentrations for enzyme, ATP, and substrate are 1.5 nM, 1 μM, and 10 μM, respectively. The reaction mixture was incubated at ambient temperature for approximately 2 h. Following the kinase reaction, a 10 μL aliquot of luciferase-luciferin mix (Promega Kinase-Glo) was added and the chemiluminescence signal measured using a Victor2 plate reader (Perkin Elmer). Total ATP consumption was limited to 40-60% and IC50 values of control compounds correlate well with literature references. Substituting PI3Kα with PI3Kβ, PI3Kγ, or PI3Kδ, the inhibitory activity of the compounds for the other isoforms of I3K were measured.

[1] = test system: SK-BR-3 (PI3Kα wild-type); assay: pAKT (T308) ELISA assay, SK-BR-3; format: cell-based; details: Homo sapiens, PI3Kαwt, hereg, read-out: Cellular pAKT (T308) IC50 SK-BR-3
Experimental: (§1) In another embodiment, the pAKT ELISA Assay was performed by seeding cells onto 96-well plates (Corning, 3904) in their respective growth media at the densities listed in Table 3. Cells were incubated at 37° C., 5% CO2 for 48 h (except MDA-MB-453 cells which were cultured in the absence of CO2). Compounds were serially diluted in DMSO and subsequently diluted in serum-free DMEM. Test compounds were added to cells in serum-free DMEM at a final concentration of 0.3% DMSO and incubated for 3 h. Cells were lysed with 130 μL of ice-cold RIPA lysis buffer (50 mM Tris-HCl, pH 7.5; 0.5% sodium deoxycholic acid; 1% Triton X-100; 0.1% SDS; 150 mM NaCl) with protease and phosphatase inhibitors (1 mM EDTA, 1 mM NaF, 20 mM β-glycerophosphate, 1 mM Na-orthovanadate, Complete-Mini EDTA-free, Roche, 11836170001, and Phosphatase Inhibitor Cocktail I, Sigma, P2850), directly in 96-well plates. Cells were lysed on ice for 60-120 min at 4° C. The supernatants were added directly to capture ELISA plates previously pre-coated with rabbit anti-AKT capture antibody. […] The wells were measured for luminescence using a Wallac plate reader at wavelength of 560 nm. After normalization of pAKT signal to total AKT1 signal, IC50 values were determined relative to the DMSO-treated control.

[2] = test system: MDA-MB-453 (PI3Kα H1047R); assay: pAKT (T308) ELISA assay, MDA-MB-453; format: cell-based; details: Homo sapiens, PI3KαH1047R, hereg, read-out: Cellular pAKT (T308) IC50 MDA-MB-453
Experimental: as §1

SK-OV-3 (PI3Kα H1047R) = assay: pAKT (T308) ELISA assay, SK-OV-3; format: cell-based; details: Homo sapiens, PI3KαH1047R, IGF1, read-out: Cellular pAKT (T308) IC50 SK-OV-3
Experimental: as §1

Chain of PI3Kγ (P48736 whole entry): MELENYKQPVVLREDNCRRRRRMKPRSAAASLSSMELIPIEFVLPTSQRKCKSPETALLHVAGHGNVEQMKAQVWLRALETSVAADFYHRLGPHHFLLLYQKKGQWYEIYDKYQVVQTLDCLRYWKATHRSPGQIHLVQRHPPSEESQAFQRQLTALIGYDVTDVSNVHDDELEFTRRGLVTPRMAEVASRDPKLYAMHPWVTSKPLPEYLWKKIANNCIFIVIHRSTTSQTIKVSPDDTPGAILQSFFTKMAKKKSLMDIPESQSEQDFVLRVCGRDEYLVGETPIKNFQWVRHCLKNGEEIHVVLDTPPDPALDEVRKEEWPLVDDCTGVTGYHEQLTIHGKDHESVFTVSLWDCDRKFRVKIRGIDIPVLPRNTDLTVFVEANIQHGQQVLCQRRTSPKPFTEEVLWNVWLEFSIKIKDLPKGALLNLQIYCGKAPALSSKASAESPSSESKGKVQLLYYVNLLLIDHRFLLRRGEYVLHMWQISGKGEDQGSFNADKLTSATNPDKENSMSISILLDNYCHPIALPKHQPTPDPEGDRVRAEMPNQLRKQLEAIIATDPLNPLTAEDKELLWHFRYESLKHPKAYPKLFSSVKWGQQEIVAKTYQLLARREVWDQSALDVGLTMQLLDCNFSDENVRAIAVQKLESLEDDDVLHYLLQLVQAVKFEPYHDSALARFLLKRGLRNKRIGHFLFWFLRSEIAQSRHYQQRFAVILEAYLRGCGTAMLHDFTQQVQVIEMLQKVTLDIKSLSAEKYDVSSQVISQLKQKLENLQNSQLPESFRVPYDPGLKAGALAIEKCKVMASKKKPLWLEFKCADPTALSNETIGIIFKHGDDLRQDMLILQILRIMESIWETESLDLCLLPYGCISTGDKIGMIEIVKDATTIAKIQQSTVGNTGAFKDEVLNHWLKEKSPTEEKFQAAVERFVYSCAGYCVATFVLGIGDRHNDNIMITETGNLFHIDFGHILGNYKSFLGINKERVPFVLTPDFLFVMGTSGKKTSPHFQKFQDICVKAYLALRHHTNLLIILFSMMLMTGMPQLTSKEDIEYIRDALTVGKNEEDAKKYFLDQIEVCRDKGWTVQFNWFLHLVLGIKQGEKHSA
Chain of PI3Kβ (P42338 whole entry): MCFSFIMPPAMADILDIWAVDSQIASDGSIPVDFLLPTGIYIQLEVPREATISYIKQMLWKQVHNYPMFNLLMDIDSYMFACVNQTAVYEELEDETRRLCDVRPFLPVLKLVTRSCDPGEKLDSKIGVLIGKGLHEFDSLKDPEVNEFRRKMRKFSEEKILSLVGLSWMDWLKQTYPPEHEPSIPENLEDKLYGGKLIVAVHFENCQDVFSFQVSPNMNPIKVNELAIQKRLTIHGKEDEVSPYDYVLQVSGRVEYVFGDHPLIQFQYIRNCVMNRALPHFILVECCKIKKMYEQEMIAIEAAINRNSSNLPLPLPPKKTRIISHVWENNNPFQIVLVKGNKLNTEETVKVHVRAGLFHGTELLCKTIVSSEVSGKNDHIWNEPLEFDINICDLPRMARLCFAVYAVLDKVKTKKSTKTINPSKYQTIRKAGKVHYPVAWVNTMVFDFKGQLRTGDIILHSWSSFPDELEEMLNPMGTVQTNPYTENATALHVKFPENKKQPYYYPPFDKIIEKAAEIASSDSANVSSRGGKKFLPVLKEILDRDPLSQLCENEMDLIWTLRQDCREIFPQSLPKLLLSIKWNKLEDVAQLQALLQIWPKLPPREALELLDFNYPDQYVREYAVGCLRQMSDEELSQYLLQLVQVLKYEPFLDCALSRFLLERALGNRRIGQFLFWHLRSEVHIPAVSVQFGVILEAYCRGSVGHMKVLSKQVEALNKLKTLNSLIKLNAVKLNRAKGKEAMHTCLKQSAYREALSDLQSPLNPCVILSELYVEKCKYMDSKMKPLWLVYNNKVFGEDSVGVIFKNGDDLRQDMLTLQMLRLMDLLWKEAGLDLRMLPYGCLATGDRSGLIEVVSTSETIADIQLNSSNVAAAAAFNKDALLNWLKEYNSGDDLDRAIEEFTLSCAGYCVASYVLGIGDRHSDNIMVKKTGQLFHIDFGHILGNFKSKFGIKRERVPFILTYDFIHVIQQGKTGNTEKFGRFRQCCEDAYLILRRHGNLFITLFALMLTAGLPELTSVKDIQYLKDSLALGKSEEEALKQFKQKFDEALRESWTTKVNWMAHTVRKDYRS
Chain of PI3Kβ (P27986 whole entry partner): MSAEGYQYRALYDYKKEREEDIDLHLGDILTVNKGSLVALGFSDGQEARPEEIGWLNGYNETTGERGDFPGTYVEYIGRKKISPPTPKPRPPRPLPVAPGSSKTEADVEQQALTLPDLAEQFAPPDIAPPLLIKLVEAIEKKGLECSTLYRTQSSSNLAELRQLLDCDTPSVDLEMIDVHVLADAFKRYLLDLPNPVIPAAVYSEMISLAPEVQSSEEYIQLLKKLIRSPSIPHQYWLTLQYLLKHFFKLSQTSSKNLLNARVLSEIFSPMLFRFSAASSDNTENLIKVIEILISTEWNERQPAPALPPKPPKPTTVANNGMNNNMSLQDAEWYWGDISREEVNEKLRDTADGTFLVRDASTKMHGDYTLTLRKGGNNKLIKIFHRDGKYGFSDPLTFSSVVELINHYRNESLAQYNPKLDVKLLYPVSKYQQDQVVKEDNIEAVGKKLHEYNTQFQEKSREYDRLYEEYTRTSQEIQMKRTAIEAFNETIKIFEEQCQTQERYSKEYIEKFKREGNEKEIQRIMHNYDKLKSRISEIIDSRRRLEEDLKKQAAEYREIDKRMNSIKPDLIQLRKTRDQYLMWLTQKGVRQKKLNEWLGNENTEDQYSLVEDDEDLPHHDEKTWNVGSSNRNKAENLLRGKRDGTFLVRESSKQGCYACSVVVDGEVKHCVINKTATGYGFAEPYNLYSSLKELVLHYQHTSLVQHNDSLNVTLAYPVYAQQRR

activity against PI3Kβ (in words) (PI3Kβ): active | IC50 (PI3Kγ): 1.68 µM | IC50 [1]: > 30 µM | IC50 [2]: > 30 µM | IC50 (SK-OV-3 (PI3Kα H1047R)): > 30 µM
Structure (SMILES): Cc1cc(C(C)Nc2ccccc2)c2nc(N3CCOCC3)cc(=O)n2c1 (centres unmarked) [TGX-221, 7-methyl-2-(4-morpholinyl)-9-[1-(phenylamino)ethyl]-4H-pyrido[1,2-a]pyrimidin-4-one]
